{"source": "paper PMC11173677", "about": "“Identification and Evaluation of Olive Phenolics in the Context of Amine Oxidase Enzyme Inhibition and Depression: In Silico Modelling and In Vitro Validation” (Molecules, 2024)", "key": {"MAO-B": {"test_system": "T1, MAO-B", "T1 construct": "endogenous in cells; host or cells: BJ human foreskin fibroblasts stimulated with DEX or HC", "assay": "MAO-B activity assay in corticosteroid-stimulated BJ cells", "format": "cell-based, human", "conditions": "then 50 μM compound 24 h", "description": "(§1) The BJ cells were subsequently incubated with 10 μM HC or 100 μM DEX to stimulate MAO expression. […] The untreated BJ cells received normal growth medium. The cells were collected, homogenised, and analysed through Western blotting where the expression of MAO-A/B was determined through immunodetection of protein subtypes.\n(§2) Activity assays were commercially sourced from BioVision (Abcam, BioVision ab241031, Waltham, MA, USA) and were performed according to manufacturer’s instructions. The treatment groups were plated in duplicate on a black, flat 96-well microplate. The cells were homogenised in assay buffer using a microtube mixer at 4 °C and centrifuged at 10,000× g for 10 min. A Bradford assay was performed to determine the total protein concentration within each cell pellet (200 μg/well for BJ cells, 40 μg/well for hESC-derived neurons). Approximately 40 μL of supernatant was loaded into wells along with 10 μL of either […], or assay buffer for total MAO activity. A H2O2 standard was pipetted as supplied and 50 μL of reaction mix was pipetted into all wells. Using a CLARIOstar Plus Microplate Reader, (BMG Labtech, Ortenberg, Germany), fluorescence was measured kinetically at 25 °C for 60 min with Ex/Em = 535/587 nm."}, "MAO-A/B expression": {"test_system": "MAO-A/B expression", "assay": "MAO-A/B protein expression in HC- or DEX-stimulated BJ cells (Western blotting)", "format": "cell-based, human", "conditions": "10 μM HC 5 days or 100 μM DEX 7 days, then 50 μM compound; Western blot", "description": "as §1"}, "MAO-A [1]": {"test_system": "T2, MAO-A", "T2 construct": "endogenous in cells; host or cells: BJ human foreskin fibroblasts stimulated with DEX or HC", "assay": "MAO-A activity assay in corticosteroid-stimulated BJ cells", "format": "cell-based, human", "conditions": "then 50 μM compound 24 h", "description": "as §1, §2"}, "MAO-A [2]": {"test_system": "T2, MAO-A", "assay": "MAO-A activity assay in hESC-derived neurons stimulated with ATRA", "format": "cell-based, human", "conditions": "1 μM ATRA 24 h, then TCP 5 μM, OLC 50 μM or OLP 50 μM for 24 h", "description": "(§3) An in vitro model of MDD was designed for stem cell-derived neuronal cells through incubation of 1 μM all-trans retinoic acid (Sigma-Aldrich PHR1187, St. Louis, MO, USA). All cell treatments were conducted in duplicate and replicated using independently differentiating neuronal plates.\nas §2"}, "purified MAO-B": {"target": "T3, purified MAO-B (Homo sapiens, UniProt P27338)", "T3 construct": "purchased Sigma-Aldrich MAK296", "T3 sequence (P27338 1-520)": "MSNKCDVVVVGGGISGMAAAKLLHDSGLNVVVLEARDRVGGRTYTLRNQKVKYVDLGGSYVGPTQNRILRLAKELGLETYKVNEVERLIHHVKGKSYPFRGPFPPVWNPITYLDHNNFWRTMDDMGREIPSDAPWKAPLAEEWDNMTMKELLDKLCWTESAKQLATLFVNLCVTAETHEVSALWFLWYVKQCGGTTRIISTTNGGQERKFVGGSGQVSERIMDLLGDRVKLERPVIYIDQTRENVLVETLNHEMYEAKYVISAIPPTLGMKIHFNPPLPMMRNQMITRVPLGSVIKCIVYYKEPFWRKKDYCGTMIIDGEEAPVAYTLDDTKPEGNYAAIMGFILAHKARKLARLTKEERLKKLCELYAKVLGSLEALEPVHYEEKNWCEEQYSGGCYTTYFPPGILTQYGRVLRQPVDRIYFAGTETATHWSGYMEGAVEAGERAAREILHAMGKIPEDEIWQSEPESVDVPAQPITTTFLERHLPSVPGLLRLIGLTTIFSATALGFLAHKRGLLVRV", "assay": "MAO-B direct screening assay (inhibitor screening kit)", "format": "biochemical", "conditions": "purified enzyme; read-out: IC50, inhibition of MAO-B", "description": "(§4) The assays were conducted for MAO-A and MAO-B according to the manufacturer’s instructions."}, "purified LSD1": {"target": "purified LSD1 (Homo sapiens, UniProt O60341)", "assay": "LSD1 direct screening assay (Epigentek inhibitory screening kit)", "format": "biochemical", "conditions": "direct incubation with purified LSD1, Epigentek kit; read-out: IC50, inhibition of LSD1", "description": "Fluorescence was measured using a CLARIOstar Plus Microplate Reader (BMG Labtech, Ortenberg, Germany) at excitation and emission wavelengths of 530 nm and 590 nm, respectively (Ex/Em = 530/590 nm)."}, "BJ cells": {"test_system": "BJ cells", "assay": "Viability of BJ cells (CellTiter-Blue Cell Viability Assay)", "format": "cell-based, human", "conditions": "for IC50: Homo sapiens, BJ", "description": "The BJ cells were seeded at densities of 10,000 cells in black flat bottom 96-well plates (Nalge Nunc, Penfield, Rochester, NY, USA) and treated with a dose–response of OLC (0–500 μM) and OLP (0–500 μM) for 24 h, 48 h, 72 h, and 7 days at 37 °C, 5% (v/v) CO2. Cell viability was measured using the Cell-Titer Blue® Assay kit (Promega, Madison, WI, USA) according to the manufacturer’s instructions. Cell-Titer Blue reagent was added to each well and incubated for 4 h at 37 °C with 5% (v/v) CO2 before the fluorescence intensity was read using the CLARIOstar Microplate Reader (BMG Labtech, Ortenberg, Germany).\nA Nikon Eclipse Ts2 light microscope (Nikon Ti TS2-S-SM, Tokyo, Japan) was used to image untreated and treated BJ cells (OLP or OLC: 0–100 μM) at 4× objective magnification at 20, 44, and 120 h (Figures S1 and S2)."}, "total MAO [3]": {"test_system": "total MAO", "assay": "Total MAO activity assay in corticosteroid-stimulated BJ cells", "format": "cell-based, human", "conditions": "then 50 μM compound 24 h", "description": "as §1, §2"}, "purified MAO-A": {"target": "T4, purified MAO-A (Homo sapiens, UniProt P21397)", "T4 construct": "purchased Sigma-Aldrich MAK295", "T4 sequence (P21397 1-527)": "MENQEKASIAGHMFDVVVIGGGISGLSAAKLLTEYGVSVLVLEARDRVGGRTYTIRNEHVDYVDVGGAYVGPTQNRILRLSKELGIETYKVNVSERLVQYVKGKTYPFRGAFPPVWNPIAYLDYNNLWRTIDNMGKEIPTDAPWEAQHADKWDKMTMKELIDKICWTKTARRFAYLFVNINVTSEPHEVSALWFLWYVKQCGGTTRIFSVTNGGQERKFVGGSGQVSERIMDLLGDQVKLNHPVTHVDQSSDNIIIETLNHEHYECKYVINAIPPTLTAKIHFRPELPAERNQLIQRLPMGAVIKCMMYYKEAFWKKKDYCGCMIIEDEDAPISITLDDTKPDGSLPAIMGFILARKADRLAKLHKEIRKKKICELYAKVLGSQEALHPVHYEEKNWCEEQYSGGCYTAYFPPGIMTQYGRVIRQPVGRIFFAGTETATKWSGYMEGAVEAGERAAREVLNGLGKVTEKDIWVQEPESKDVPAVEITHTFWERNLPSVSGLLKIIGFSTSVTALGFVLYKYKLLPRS", "assay": "MAO-A direct screening assay (inhibitor screening kit)", "format": "biochemical", "conditions": "purified enzyme; read-out: IC50, inhibition of MAO-A", "description": "as §4"}, "total MAO [4]": {"test_system": "total MAO", "assay": "Total MAO activity assay in hESC-derived neurons stimulated with ATRA", "format": "cell-based, human", "conditions": "1 μM ATRA 24 h, then TCP 5 μM, OLC 50 μM or OLP 50 μM for 24 h", "description": "as §3, §2"}}}
{"compound": "COC(=O)[C@H](O)CC(=O)OCCc1ccc(O)c(O)c1", "note": "[OLP, oleohydroxypyretol]", "values": [{"measurement": "MAO-B activity in BJ cells", "setting": "MAO-B; 10 μM HC 5 days", "value": "downregulate"}, {"measurement": "MAO-B activity in BJ cells", "setting": "MAO-B; 100 μM DEX 7 days", "value": "downregulate"}, {"measurement": "MAO enzyme expression within BJ cells", "setting": "MAO-A/B expression", "value": "Potent inhibition"}, {"measurement": "MAO-A activity in BJ cells", "setting": "MAO-A [1]; 10 μM HC 5 days", "value": "downregulate"}, {"measurement": "MAO-A activity in BJ cells", "setting": "MAO-A [1]; 100 μM DEX 7 days", "value": "downregulate"}, {"measurement": "MAO-A activity in hESC-derived neurons", "setting": "MAO-A [2]", "value": "significantly reduced"}, {"measurement": "IC50", "setting": "purified MAO-B", "value": 32, "unit": "µM"}, {"measurement": "IC50", "setting": "purified LSD1", "value": 0.8, "unit": "µM"}, {"measurement": "relative viability of BJ cells at the highest concentration", "setting": "BJ cells; 500 μM", "value": "decreased"}, {"measurement": "proliferation potential of BJ cells", "setting": "BJ cells; 25, 50, 75 and 100 μM, similar to untreated cells", "value": "maintained their proliferation potential"}, {"measurement": "IC50", "setting": "BJ cells; 24 h", "value": 220, "unit": "µM"}, {"measurement": "IC50", "setting": "BJ cells; 48 h", "value": 257, "unit": "µM"}, {"measurement": "toxicity to BJ cells at the concentrations used in further experiments", "setting": "BJ cells; concentrations used in further experiments (50 μM)", "value": "non-toxic"}, {"measurement": "viability of BJ cells at lower concentrations", "setting": "BJ cells; up to 200 μM", "value": "largely maintained"}, {"measurement": "total MAO activity in BJ cells", "setting": "total MAO [3]; 10 μM HC 5 days", "value": "downregulate"}, {"measurement": "total MAO activity in BJ cells", "setting": "total MAO [3]; 100 μM DEX 7 days", "value": "downregulate"}, {"measurement": "IC50", "setting": "purified MAO-A", "value": 0.85, "unit": "µM"}, {"measurement": "total MAO activity in hESC-derived neurons", "setting": "total MAO [4]", "value": "significantly reduced"}]}
